Measured values published in patent US11498899B2, “Nitrone herbicides” (FMC Corporation, priority 2016, dated 2022).

Key:
[1] = system: barnyardgrass (Echinochloa crus-galli); assay: Test A preemergence, visual injury rating 0-100 (0 no effect, 100 complete control); type: in vivo; conditions: for Barnyardgrass plant response rating (0 to 100 scale): 125 g ai/ha; for Barnyardgrass plant response rating: 500 g ai/ha, 0 to 100 scale
[2] = system: foxtail, green (green foxtail, Setaria viridis); assay: Test A preemergence, visual injury rating 0-100; type: in vivo; conditions: for Foxtail, Green plant response rating (0 to 100 scale): 125 g ai/ha; for Foxtail, Green plant response rating: 500 g ai/ha, 0 to 100 scale
kochia (Kochia scoparia) [3] = assay: Test A preemergence, visual injury rating 0-100; type: in vivo; conditions: for Kochia plant response rating (0 to 100 scale): 125 g ai/ha; for Kochia plant response rating: 500 g ai/ha, 0 to 100 scale
[4] = system: pigweed (Amaranthus retroflexus); assay: Test A preemergence, visual injury rating 0-100; type: in vivo; conditions: for Pigweed plant response rating (0 to 100 scale): 125 g ai/ha; for Pigweed plant response rating: 500 g ai/ha, 0 to 100 scale
[5] = system: ragweed (common ragweed, Ambrosia elatior); assay: Test A preemergence, visual injury rating 0-100; type: in vivo; conditions: for Ragweed plant response rating (0 to 100 scale): 125 g ai/ha; for Ragweed plant response rating: 500 g ai/ha, 0 to 100 scale
[6] = system: ryegrass, Italian (Italian ryegrass, Lolium multiflorum); assay: Test A preemergence, visual injury rating 0-100; type: in vivo; conditions: for Ryegrass, Italian plant response rating (0 to 100 scale): 125 g ai/ha; for Ryegrass, Italian plant response rating: 500 g ai/ha, 0 to 100 scale
[7] = system: barnyardgrass (Echinochloa crus-galli); assay: Test A postemergence, visual injury rating 0-100; type: in vivo; conditions: 0 to 100 scale
[8] = system: blackgrass (Alopecurus myosuroides); assay: Test A postemergence, visual injury rating 0-100; type: in vivo; conditions: 0 to 100 scale
corn (Zea mays) = assay: Test A postemergence, visual injury rating 0-100; type: in vivo; conditions: 0 to 100 scale
[9] = system: foxtail, green (green foxtail, Setaria viridis); assay: Test A postemergence, visual injury rating 0-100; type: in vivo; conditions: 0 to 100 scale
[10] = system: galium (catchweed bedstraw, Galium aparine); assay: Test A postemergence, visual injury rating 0-100; type: in vivo; conditions: 0 to 100 scale
kochia (Kochia scoparia) [11] = assay: Test A postemergence, visual injury rating 0-100; type: in vivo; conditions: 0 to 100 scale
[12] = system: pigweed (Amaranthus retroflexus); assay: Test A postemergence, visual injury rating 0-100; type: in vivo; conditions: 0 to 100 scale
[13] = system: ragweed (common ragweed, Ambrosia elatior); assay: Test A postemergence, visual injury rating 0-100; type: in vivo; conditions: 0 to 100 scale
[14] = system: ryegrass, Italian (Italian ryegrass, Lolium multiflorum); assay: Test A postemergence, visual injury rating 0-100; type: in vivo; conditions: 0 to 100 scale
[15] = system: wheat (Triticum aestivum); assay: Test A postemergence, visual injury rating 0-100; type: in vivo; conditions: 0 to 100 scale
[16] = system: ducksalad (Heteranthera limosa); assay: Test B flooded paddy test, visual rating 0-100; conditions: Flood, 250 g ai/ha, applied to paddy water, rated after 13 to 15 days
[17] = system: barnyardgrass (Echinochloa crus-galli); assay: Test B flooded paddy test, visual rating 0-100; conditions: Flood, 250 g ai/ha, applied to paddy water, rated after 13 to 15 days
rice (Oryza sativa) = assay: Test B flooded paddy test, visual rating 0-100 (0 no effect, 100 complete control); conditions: Flood, 250 g ai/ha, applied to paddy water, rated after 13 to 15 days

Compound | Barnyardgrass plant response rating (0 to 100 scale) [1] | Barnyardgrass plant response rating [1] | Foxtail, Green plant response rating (0 to 100 scale) [2] | Foxtail, Green plant response rating [2] | Kochia plant response rating (0 to 100 scale) (kochia (Kochia scoparia) [3]) | Kochia plant response rating (kochia (Kochia scoparia) [3]) | Pigweed plant response rating (0 to 100 scale) [4] | Pigweed plant response rating [4] | Ragweed plant response rating (0 to 100 scale) [5] | Ragweed plant response rating [5] | Ryegrass, Italian plant response rating (0 to 100 scale) [6] | Ryegrass, Italian plant response rating [6] | Barnyardgrass plant response rating ([7]; 125 g ai/ha) | Barnyardgrass plant response rating ([7]; 500 g ai/ha) | Blackgrass plant response rating ([8]; 125 g ai/ha) | Blackgrass plant response rating ([8]; 500 g ai/ha) | Corn plant response rating (corn (Zea mays); 125 g ai/ha) | Corn plant response rating (corn (Zea mays); 500 g ai/ha) | Foxtail, Green plant response rating ([9]; 125 g ai/ha) | Foxtail, Green plant response rating ([9]; 500 g ai/ha) | other results
CC1=[N+]([O-])C(C(=O)Nc2ccccc2)C(c2ccc(F)c(F)c2)C1 (racemic) [Compound 17] | 0 | 20 | 0 | 50 | 0 | 0 | 0 | 0 | 0 | 0 | 0 | 0 | 0 | 0 | 0 | 0 | 0 | 20 | 20 | 20 | Galium plant response rating ([10]; 125 g ai/ha): 0; Galium plant response rating ([10]; 500 g ai/ha): 0; Kochia plant response rating (kochia (Kochia scoparia) [11]; 125 g ai/ha): 0; Kochia plant response rating (kochia (Kochia scoparia) [11]; 500 g ai/ha): 0; Pigweed plant response rating ([12]; 125 g ai/ha): 0; Pigweed plant response rating ([12]; 500 g ai/ha): 0; Ragweed plant response rating ([13]; 125 g ai/ha): 0; Ragweed plant response rating ([13]; 500 g ai/ha): 0; Ryegrass, Italian plant response rating ([14]; 125 g ai/ha): 0; Ryegrass, Italian plant response rating ([14]; 500 g ai/ha): 0; Wheat plant response rating ([15]; 125 g ai/ha): 0; Wheat plant response rating ([15]; 500 g ai/ha): 0; Ducksalad plant response rating (0 to 100 scale) [16]: 40; Barnyardgrass plant response rating (0 to 100 scale) [17]: 0; Rice plant response rating (0 to 100 scale) (rice (Oryza sativa)): 0
CC1=[N+]([O-])C(C(=O)Nc2cccc(F)c2F)C(c2cccc(Br)c2)C1 (racemic) [Compound 19] | 70 | 90 | 50 | 90 | 0 | 60 | 20 | 60 | 20 | 50 | 0 | 40 | 10 | 90 | 20 | 60 | 30 | 80 | 30 | 60 | Galium plant response rating ([10]; 125 g ai/ha): 0; Galium plant response rating ([10]; 500 g ai/ha): 30; Kochia plant response rating (kochia (Kochia scoparia) [11]; 125 g ai/ha): 0; Kochia plant response rating (kochia (Kochia scoparia) [11]; 500 g ai/ha): 30; Pigweed plant response rating ([12]; 125 g ai/ha): 0; Pigweed plant response rating ([12]; 500 g ai/ha): 20; Ragweed plant response rating ([13]; 125 g ai/ha): 0; Ragweed plant response rating ([13]; 500 g ai/ha): 20; Ryegrass, Italian plant response rating ([14]; 125 g ai/ha): 0; Ryegrass, Italian plant response rating ([14]; 500 g ai/ha): 40; Wheat plant response rating ([15]; 125 g ai/ha): 0; Wheat plant response rating ([15]; 500 g ai/ha): 70; Ducksalad plant response rating (0 to 100 scale) [16]: 95; Barnyardgrass plant response rating (0 to 100 scale) [17]: 85; Rice plant response rating (0 to 100 scale) (rice (Oryza sativa)): 15
CC1=[N+]([O-])C(C(=O)Nc2cccc(F)c2F)C(c2ccc(Br)cc2)C1 (racemic) [Compound 20] | 60 | 90 | 60 | 90 | 0 | 50 | 60 | 80 | 20 | 60 | 0 | 20 | 10 | 50 | 0 | 30 | 0 | 0 | 0 | 60 | Galium plant response rating ([10]; 125 g ai/ha): 30; Galium plant response rating ([10]; 500 g ai/ha): 40; Kochia plant response rating (kochia (Kochia scoparia) [11]; 125 g ai/ha): 0; Kochia plant response rating (kochia (Kochia scoparia) [11]; 500 g ai/ha): 30; Pigweed plant response rating ([12]; 125 g ai/ha): 0; Pigweed plant response rating ([12]; 500 g ai/ha): 40; Ragweed plant response rating ([13]; 125 g ai/ha): 0; Ragweed plant response rating ([13]; 500 g ai/ha): 30; Ryegrass, Italian plant response rating ([14]; 125 g ai/ha): 0; Ryegrass, Italian plant response rating ([14]; 500 g ai/ha): 30; Wheat plant response rating ([15]; 125 g ai/ha): 0; Wheat plant response rating ([15]; 500 g ai/ha): 30; Ducksalad plant response rating (0 to 100 scale) [16]: 100; Barnyardgrass plant response rating (0 to 100 scale) [17]: 95; Rice plant response rating (0 to 100 scale) (rice (Oryza sativa)): 0
CC1=[N+]([O-])C(C(=O)Nc2cccc(F)c2F)C(c2ccccc2F)C1 (racemic) [Compound 21] | 10 | 90 | 20 | 90 | 0 | 40 | 0 | 0 | 0 | 0 | 0 | 0 | 0 | 50 | 0 | 20 | 0 | 20 | 0 | 20 | Galium plant response rating ([10]; 125 g ai/ha): 0; Galium plant response rating ([10]; 500 g ai/ha): 0; Kochia plant response rating (kochia (Kochia scoparia) [11]; 125 g ai/ha): 0; Kochia plant response rating (kochia (Kochia scoparia) [11]; 500 g ai/ha): 0; Pigweed plant response rating ([12]; 125 g ai/ha): 0; Pigweed plant response rating ([12]; 500 g ai/ha): 0; Ragweed plant response rating ([13]; 125 g ai/ha): 0; Ragweed plant response rating ([13]; 500 g ai/ha): 0; Ryegrass, Italian plant response rating ([14]; 125 g ai/ha): 0; Ryegrass, Italian plant response rating ([14]; 500 g ai/ha): 0; Wheat plant response rating ([15]; 125 g ai/ha): 0; Wheat plant response rating ([15]; 500 g ai/ha): 0; Ducksalad plant response rating (0 to 100 scale) [16]: 80; Barnyardgrass plant response rating (0 to 100 scale) [17]: 40; Rice plant response rating (0 to 100 scale) (rice (Oryza sativa)): 0
CC1=[N+]([O-])C(C(=O)Nc2cccc(C#N)c2F)C(c2ccc(C(F)(F)F)cc2)C1 (racemic) [Compound 28] | 80 | 100 | 90 | 100 | 0 | 70 | 90 | 100 | 80 | 100 | 20 | 20 | 20 | 90 | 0 | 40 | 0 | 0 | 30 | 90 | Galium plant response rating ([10]; 125 g ai/ha): 70; Galium plant response rating ([10]; 500 g ai/ha): 70; Kochia plant response rating (kochia (Kochia scoparia) [11]; 125 g ai/ha): 0; Kochia plant response rating (kochia (Kochia scoparia) [11]; 500 g ai/ha): 20; Pigweed plant response rating ([12]; 125 g ai/ha): 0; Pigweed plant response rating ([12]; 500 g ai/ha): 70; Ragweed plant response rating ([13]; 125 g ai/ha): 0; Ragweed plant response rating ([13]; 500 g ai/ha): 70; Ryegrass, Italian plant response rating ([14]; 125 g ai/ha): 0; Ryegrass, Italian plant response rating ([14]; 500 g ai/ha): 20; Wheat plant response rating ([15]; 125 g ai/ha): 0; Wheat plant response rating ([15]; 500 g ai/ha): 0; Ducksalad plant response rating (0 to 100 scale) [16]: 0; Barnyardgrass plant response rating (0 to 100 scale) [17]: 30; Rice plant response rating (0 to 100 scale) (rice (Oryza sativa)): 0
